Measured values from US12410407B2, “Choroid plexus organoids and methods for production thereof” (UNITED KINGDOM RESEARCH AND INNOVATION, priority 2019, dated 2025).
Like-named read-outs stand apart in the source and are kept apart here. Marks after values point to notes of the source that are not given here.

What was measured:
[1] = cited from earlier work
[2] = in vivo, from literature, cited from earlier work
ChP epithelial barrier [3] = test system: ChP epithelial barrier; parameters: Km, uu, iCSF: unit not given beside the values
[4] = In vivo drug levels in CSF and blood plasma, and unbound CSF to plasma ratio (literature data); parameters: species or system humans; conditions: human, calculated from literature values (Qalb 0.005)
Protocol: For comparison between in vitro and in vivo levels of small molecules in CSF, in vivo unbound CSF to blood plasma ratio, Kp,uu,CSF, was calculated as the ratio of the unbound drug in CSF (Cu,CSF) to that in blood plasma (Cu,p) similar to previously described (7) (eq A). The amount of unbound drug in each of CSF and plasma is the product of the total drug concentration (Cp) or (CCSF) and the fraction of drug that is unbound (fu,p) or (fu,CSF)(eqs B and C). Cp, CCSF, and fu,p were taken from literature (Table S2). However, because of the difficulty in obtaining large amounts of CSF, for most drugs fu,CSF is not known.

ChP epithelial barrier [5] = assay: ChP organoid small-molecule permeability, NMR analysis of media and iCSF; conditions: for Presence in iCSF by NMR: after 2h incubation, 500 μM, L-Dopa in the presence of Carbidopa
Protocol: On day 5 media was replaced with NI media in the same 96-well. After two days EBs were embedded in 20 μl matrigel using sheets of dimpled parafilm and incubated for 20 min at 37° C. as previously described (2). EBs were then transferred to a 6-well plate with 3 ml of Expansion media per well. For ChP patterning, on day 10 treatment with 3 μM CHIR and 20 ng/ml BMP4 in Maturation media was used keeping a maximum number of 6 EBs in each 5 cm dish. The treatment was kept for 7 days in maturation media. On day 15 organoids were moved to an incubator with a shaker and were fed every 3-4 days with maturation media. From day 30 dissolved matrigel (1:50) was added to the maturation media.
For NMR experiments, ChP organoids were incubated in complete IDM+A media without phenol red and 1:50 Geltrex (Gibco, A14132-02) for 2 h, 12h, 24 h, 48h or 72h. Organoid media and iCSF were collected and centrifuged at 500 g for 5 min to remove debris. ^1H-NMR spectra were acquired using a Bruker Ultrashield 400 Plus operating at 400.1 MHz. Samples consisting of H2O/D2O mixtures were analyzed using HOD suppression to collect ^1H-NMR data. Chemical shifts (6) are shown in ppm. The yields of conversion were determined by relative integration of the signals in the ^1H-NMR spectra. Data analysis was performed using MestReNova (version 7.0) and GraphPad Prism (version 7.0b).
Because the NMR measurements of in vitro fluids detected unbound drug, the ratio (Km,uu,iCSF) was a simple function of the ratio of drug in in vitro CSF (Cu,iCSF) to drug in media (Cu,m) (eq E).
Thus, in order to test for such selective permeability to small molecules, we applied various therapeutically relevant small molecules and assayed their permeability by NMR analysis of organoid iCSF. […] We incubated the organoids with Dopa and with L-Dopa in the presence of Carbidopa, a small molecule that prevents the conversion of L-Dopa into Dopa (34, 35).

[6] = six trial participants, one of whom died; cited from earlier work
protein misfolding = conditions: mouse model of Charcot-Marie Tooth-1B; cited from earlier work
[7] = cited from earlier work; remark: listed apart in the source
[8] = in vivo data from mouse
Excerpt: Pre-clinical or clinical data of this molecule in humans are not yet available, but Phase I clinical trials are under way so any additional human in vitro data would be informative.

[9] = total drug concentration in CSF
[10] = total drug concentration in blood plasma
[11] = in vivo data from mouse, estimate from graph in reference
[12] = unbound concentrations reported, average of two measurements

## CN(Cc1cnc2nc(N)nc(N)c2n1)c1ccc(C(=O)N[C@@H](CCC(=O)O)C(=O)O)cc1 [Methotrexate]
[1]
  Entry into brain/CSF in vivo as established in the literature: poorly cross the BBB
[2]; [9]
  CCSF: 0.27 µM
[2]; [10]
  Cp: 15.8 µM
ChP epithelial barrier [3]
  Km, uu, iCSF: 0.01
[4]
  Kp uu: 0.04

## CN(C(=O)n1cnc(-c2ccc[n+]([O-])c2)c1)C1CCCCC1 [BIA-10-2474]
ChP epithelial barrier [5]; 2 h, 12h, 24 h and 72h
  Time course of the ratio in iCSF to media: continued to accumulate in the iCSF
ChP epithelial barrier [5]
  Presence in iCSF by NMR: able to cross the ChP epithelial barrier
[6]
  Adverse effects in Phase I clinical trials: severe neurotoxicity

## CC(NC(C)(C)C)C(=O)c1cccc(Cl)c1 (stereo not drawn) [Bupropion]
[2]; [10]
  Cp: 29.8 ng/mL
ChP epithelial barrier [3]
  Km, uu, iCSF: 1.07

## N[C@@H](Cc1ccc(O)c(O)c1)C(=O)O [L-DOPA, Levodopa]
[1]
  Entry into brain/CSF in vivo as established in the literature: actively transported in to the CSF via the LAT-1 transporter
[2]; [9]
  CCSF: ~150 ng/mL
[2]; [10]
  Cp: ~400 ng/mL
ChP epithelial barrier [3]
  iCSF/media ratio, L-Dopa compared to Dopa: consistently higher

## NC(N)=N/N=C/c1ccccc1Cl [Sephin 1]
Protein misfolding
  CNS effect against protein misfolding: protective CNS role against protein misfolding
ChP epithelial barrier [5]; 2h incubation, compared with published mouse data
  Permeability in the human organoid model compared with the mouse model: much lower
ChP epithelial barrier [5]
  Presence in iCSF by NMR: detectable
[7]; [11]
  CCSF: ~110 ng/g
  Cp: ~11 ng/mL
[7]; mouse
  BBB crossing in mouse: cross the BBB
[8]
  Kp, uu, CSF (total compound brain to plasma ratio): 10^#

## NCCc1ccc(O)c(O)c1 [Dopamine]
[1]
  Entry into brain/CSF in vivo as established in the literature: doesn't enter the brain in vivo
[2]; Δ upon injection
  CCSF: 9.01 ng/mL
  Cp: 67.4 ng/mL
ChP epithelial barrier [3]
  Km, uu, iCSF: 0.10
[4]
  Kp uu: 0.185

## CC[C@]1(O)C[C@H]2CN(CCc3c([nH]c4ccccc34)[C@@](C(=O)OC)(c3cc4c(cc3OC)N(C=O)[C@H]3[C@@](O)(C(=O)OC)[C@H](OC(C)=O)[C@]5(CC)C=CCN6CC[C@]43[C@@H]65)C2)C1 [Vincristine]
[1]
  Entry into brain/CSF in vivo as established in the literature: poorly cross the BBB
[2]; [12]
  CCSF: 0.000855 µM
  Cp: 0.0205 µM
[4]
  Kp uu: 0.042
